Our source for the Ki values is ChEMBL document CHEMBL1133474, “Role of hydrophobic interactions in binding S-(N-aryl/alkyl-N-hydroxycarbamoyl)glutathiones to the active site of the antitumor target enzyme glyoxalase I” (J Med Chem, 2000).

The target in this experiment is Lactoylglutathione lyase (Homo sapiens, UniProt Q04760). Briefly: Binding affinity for Glyoxalase I.
Lactoylglutathione lyase, sequence (Q04760 whole entry): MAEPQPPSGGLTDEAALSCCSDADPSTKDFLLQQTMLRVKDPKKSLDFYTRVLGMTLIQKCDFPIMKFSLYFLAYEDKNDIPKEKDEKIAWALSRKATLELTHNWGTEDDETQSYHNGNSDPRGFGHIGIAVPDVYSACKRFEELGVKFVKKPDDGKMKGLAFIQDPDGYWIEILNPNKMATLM
For `CCCCCCN(O)C(=O)SC[C@H](NC(=O)CC[C@H](N)C(=O)O)C(=O)NCC(=O)O`, the affinity corresponds to a Ki of 16 nM.

For the compound `CCCCN(O)C(=O)SC[C@H](NC(=O)CC[C@H](N)C(=O)O)C(=O)NCC(=O)O`, affinity was put at a Ki of 180 nM.

Take `CCCCCCCN(O)C(=O)SC[C@H](NC(=O)CC[C@H](N)C(=O)O)C(=O)NCC(=O)O`: the Ki (usually the dissociation constant of the complex between target and ligand, obtained from inhibition or displacement) came to 18 nM.

Consider `CCN(O)C(=O)SC[C@H](NC(=O)CC[C@H](N)C(=O)O)C(=O)NCC(=O)O`, for which the affinity corresponds to a Ki of 1180 nM.

Compound `CN(O)C(=O)SC[C@H](NC(=O)CC[C@H](N)C(=O)O)C(=O)NCC(=O)O` showed an inhibitory constant (Ki) of 1700 nM.

`CCCN(O)C(=O)SC[C@H](NC(=O)CC[C@H](N)C(=O)O)C(=O)NCC(=O)O`: the affinity, expressed as Ki, was 800 nM.

In turn, `CCCCCN(O)C(=O)SC[C@H](NC(=O)CC[C@H](N)C(=O)O)C(=O)NCC(=O)O` had a Ki of 170 nM.

In turn, `N[C@@H](CCC(=O)N[C@@H](CSC(=O)NO)C(=O)NCC(=O)O)C(=O)O` gave a Ki of 183000 nM.
